Laboratory results from patent US7291601B1, “Arginine-rich anti-vascular endothelial growth factor peptides that inhibit growth and metastasis of human tumor cells by blocking angiogenesis” (Korea Greencross Corp., priority 1999, dated 2007).
“Also recorded” adds a separate entry of the source.

Legend:
[1] = tested on: egg CAM (chorioallantoic membranes); assay: Egg CAM assay, angiogenesis induced by VEGF; assay type: in vivo; conditions: VEGF 10 ng/egg alone or with 1 μg sample; for Angiogenic activity(%): (standard deviation)
Protocol: Fertilized eggs (Pulmuwon, Korea) were incubated at 37° C. under a humidity of 90%. After three days of culturing, the eggs were deprived of about 2 ml of albumin. After four days, eggs were partially deprived of the sheath to make a window with a size of 2×2 cm.
After VEGF (10 ng/egg) was mixed with various amounts of peptides or other samples, 3 μl of each mixture was dropped onto ¼ fraction pieces of thermanox coverslips (Nunc) and dried. The pieces were placed on CAM of 9-day embryonic eggs.
Two days later, the samples were independently observed under anatomical microscopes by two different persons to determine whether new blood vessels are induced by the dropped samples or not. In this regard, the experiment was repeated at least three times using 10 or more eggs per sample and the results are given in Table 5, below.

[2] = tested on: HT1080 (human fibrosarcoma); assay: Egg CAM assay, angiogenesis induced by VEGF-secreting cancer cells; assay type: in vivo; conditions: for effect on angiogenesis induced by VEGF secreted from human cancer cells: FIG. 12; for Angiogenic activity eggs/total eggs / Angiogenic activity(%): egg CAM, 10^5 HT1080 cells/egg with 0.1 μg peptide; for Angiogenic activity(%): (standard deviation)
Protocol: An experiment using egg CAM was carried out to confirm the inhibitory activity of the screened peptides against the angiogenesis induced by cancer cells, which secrete VEGF. Fertilized eggs were deprived of albumin and windows were formed on the eggs as in above. 10^5 cells of HT1080 (human fibrosarcoma) were mixed with 7.5 μg of Type I collagen (rat tail, Beckton Dickinson, USA) within a volume of 5 μl and dropped onto ¼ fraction pieces of Thermanox coverslips to give collagen sponges. After being covered with the collagen sponges, 10-day embryonic egg CAM was incubated at 37° C. for 3 days. Blood vessels induced by the cancer cells were observed and photographed as in above (see Table 6 and FIG. 12).

HUVEC = assay: Toxicity of peptides to HUVEC in the absence of VEGF (thymidine incorporation); assay type: cell-based, human; conditions: 100 μM peptide
Protocol: In a gelatin-coated 48-well plate (Nunc) HUVEC were cultured at a density of 10^4 cells/well at 37° C. for one day, followed by washing the cells three times with serum-free medium 199. After being added with culture media containing VEGF (10 ng/ml, R&D systems) and various concentrations of the screened peptides, the cells were cultured at 37° C. After 24 hours of culturing, the cells were added with [methyl-^3H] thymidine (0.5 μCi/well) and cultured for an additional one day. Before quantification of the radioactivity used for the DNA synthesis with the aid of a liquid scintillation counter, the cells were washed with PBS containing 0.1% albumin, treated with 0.4 N NaOH at room temperature for 20 min for cell lysis, and neutralized with 2 N HCl. In order to determine the toxicity of the peptides, HUVEC were examined as in above using excess peptide (100 μM) in the absence of VEGF.
With reference to FIG. 10b, the radioactivity of the thymidine inserted into the genome of HUVEC is measured in the absence of no peptides and in the presence of 100 μM of each of the three peptides.

VEGF8-121 = target: T1, VEGF8-121 (Homo sapiens, UniProt P15692); assay: Inhibition of labeled VEGF8-121 binding to its receptors; conditions: FIG. 9
T1 construct: made in house; host or cells: E. coli BL21(DE3)pLysS, inclusion bodies
T1 sequence (P15692 34-147 isoform P15692-9): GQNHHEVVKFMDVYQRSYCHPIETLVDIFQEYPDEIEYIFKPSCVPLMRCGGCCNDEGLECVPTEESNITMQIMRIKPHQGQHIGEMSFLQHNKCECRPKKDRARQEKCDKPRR
Text: (§1) In order to verify this postulation, Sequence 1 (RRKRRR) was examined for the common binding domain on VEGF because it inhibited the binding of VEGF to its receptors at the highest efficiency. First, appropriate primers were synthesized and used to amplify various cDNAs coding for VEGF165, VEGF121, VEFG8-121, VEGF109, and VEGF8-109 while a human liver cDNA library (Clontech) served as a template. After being inserted to plasmid pRSET A (Invitrogen), the cDNAs were sequenced. The resulting five pRSET A vectors, each having one of the five cDNAs, were introduced into an expression strain (BL21(DE3)pLysS) containing T7 RNA polymerase. […] The purified VEGFs were quantified by use of a protein assay reagent (Bio-Rad) and all found to bind to VEGF receptors and exert growth hormone activity on HUVEC. […] For use, each labeled protein was quantified by ELISA (enzyme-linked immunosorbent assay) using a mouse monoclonal anti-VEGF antibody (R&D systems).
(§2) Each peptide was examined for antagonistic activity against VEGF in the same manner as in Example 2. Referring to FIG. 9, the radioactivity measured from ^125I-labeled VEGF associated with fixed Sequence 1 (RRKRRR) (SEQ ID NO: 1) is plotted in the absence of competitors and in the presence of competitors for various VEGF isomers. […]

rabbit corneal domes = assay: Rabbit corneal dome angiogenesis induced by VEGF; assay type: in vivo; conditions: VEGF 10 ng with 1 μg peptide, 16 days after operation; listed as Sequence 1
Protocol: To confirm the test results obtained from egg CAM, an experiment was performed using rabbit corneal domes for in vivo angiogenesis testing. New Zealand male rabbits weighing 3 kg (SLC, Japan) were subjected to intramuscular ketamine anesthesia (44 mg/kg), followed by dissecting the corneal domes to a length of 3 mm by use of an operating knife (Bard-Parker—#11). […] 16 days after the operation, angiogenesis was obviously observed and photographs were taken of blood vessels newly formed in the corneal dome (Nikon, FS-2, Japan).

VEGF121 = target: T2, VEGF121 (Homo sapiens, UniProt P15692); assay: Inhibition of labeled VEGF121 binding to its receptors; conditions: heparin-binding domain-deficient isoform, FIG. 9
T2 construct: made in house; host or cells: E. coli BL21(DE3)pLysS, inclusion bodies
T2 sequence (P15692 27-147 isoform P15692-9): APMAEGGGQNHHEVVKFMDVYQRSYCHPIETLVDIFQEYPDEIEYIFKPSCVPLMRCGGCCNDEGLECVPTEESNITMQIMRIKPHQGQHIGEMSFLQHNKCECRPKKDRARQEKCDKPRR
Text: as §1, §2

VEGF8-109 = target: T3, VEGF8-109 (Homo sapiens, UniProt P15692); assay: Inhibition of labeled VEGF8-109 binding to its receptors; conditions: FIG. 9
T3 construct: made in house; host or cells: E. coli BL21(DE3)pLysS, inclusion bodies
T3 sequence (P15692 214-315): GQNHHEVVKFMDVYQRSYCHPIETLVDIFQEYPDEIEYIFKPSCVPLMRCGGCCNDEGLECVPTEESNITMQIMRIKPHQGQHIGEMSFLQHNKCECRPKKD
Text: as §1, §2

Molecule	Angiogenic activity eggs/total eggs [1]	Angiogenic activity(%) [1]	effect on angiogenesis induced by VEGF secreted from human cancer cells [2]	Angiogenic activity eggs/total eggs [2]	Angiogenic activity(%) [2]	direct influence on growth of HUVEC / cytotoxicity to endothelial cells (HUVEC)	inhibition of binding of VEGF8-121 to its receptors (VEGF8-121)	VEGF-induced angiogenesis in the rabbit corneal dome (rabbit corneal domes)	inhibition of binding of labeled VEGF121 to its receptors (VEGF121)	inhibition of binding of VEGF8-109 to its receptors (VEGF8-109)
N=C(N)NCCC[C@H](NC(=O)[C@H](CCCNC(=N)N)NC(=O)[C@H](CCCNC(=N)N)NC(=O)[C@H](CCCNC(=N)N)NC(=O)[C@H](CCCNC(=N)N)NC(=O)[C@@H](N)CCCNC(=N)N)C(N)=O [compound 11, NH2-Arg-Arg-Arg-Arg-Arg-Arg-CONH2]	4/26	15.6(5.1) %	inhibitory effect	10/24	41.0(7.1) %	damage neither	–	–	–	–
H-RKKRKR-NH2 [compound 1, NH2-Arg-Lys-Lys-Arg-Lys-Arg-CONH2]	4/26	15.6(4.5) %	inhibitory effect	10/23	43.0(9.9) %	damage neither	–	–	–	–
H-RRKRRR-NH2 [compound 8, NH2-Arg-Arg-Lys-Arg-Arg-Arg-CONH2]	4/26	15.6(5.1) %	inhibitory effect	8/22	36.0(8.5) %	damage neither	not inhibited	completely inhibited; also recorded: anti-angiogenic effect	inhibited	not inhibited
